Data published in article PMC12067128, “Macrocyclization: Enhancing Drug-like Properties of Discoidin Domain Receptor Kinase Inhibitors” (ACS Medicinal Chemistry Letters, 2025).
Where two headings read alike, the source gives them in different places.

Experiments:
DDR1 = target: T1, DDR1 (Homo sapiens, UniProt Q08345); experiment: PathHunter U2OS DDR1 Functional Assay (DDR1 cellular assay); assay type: cell-based; details: U2OS PathHunter cells, collagen II stimulation; read-out: Cell DDR1 IC50
T1 construct: ProLink™ (PK) tagged full-length DDR1b; host or cells: U2OS human osteosarcoma cells (PathHunter U2OS DDR1)
T1 sequence (Q08345 19-913): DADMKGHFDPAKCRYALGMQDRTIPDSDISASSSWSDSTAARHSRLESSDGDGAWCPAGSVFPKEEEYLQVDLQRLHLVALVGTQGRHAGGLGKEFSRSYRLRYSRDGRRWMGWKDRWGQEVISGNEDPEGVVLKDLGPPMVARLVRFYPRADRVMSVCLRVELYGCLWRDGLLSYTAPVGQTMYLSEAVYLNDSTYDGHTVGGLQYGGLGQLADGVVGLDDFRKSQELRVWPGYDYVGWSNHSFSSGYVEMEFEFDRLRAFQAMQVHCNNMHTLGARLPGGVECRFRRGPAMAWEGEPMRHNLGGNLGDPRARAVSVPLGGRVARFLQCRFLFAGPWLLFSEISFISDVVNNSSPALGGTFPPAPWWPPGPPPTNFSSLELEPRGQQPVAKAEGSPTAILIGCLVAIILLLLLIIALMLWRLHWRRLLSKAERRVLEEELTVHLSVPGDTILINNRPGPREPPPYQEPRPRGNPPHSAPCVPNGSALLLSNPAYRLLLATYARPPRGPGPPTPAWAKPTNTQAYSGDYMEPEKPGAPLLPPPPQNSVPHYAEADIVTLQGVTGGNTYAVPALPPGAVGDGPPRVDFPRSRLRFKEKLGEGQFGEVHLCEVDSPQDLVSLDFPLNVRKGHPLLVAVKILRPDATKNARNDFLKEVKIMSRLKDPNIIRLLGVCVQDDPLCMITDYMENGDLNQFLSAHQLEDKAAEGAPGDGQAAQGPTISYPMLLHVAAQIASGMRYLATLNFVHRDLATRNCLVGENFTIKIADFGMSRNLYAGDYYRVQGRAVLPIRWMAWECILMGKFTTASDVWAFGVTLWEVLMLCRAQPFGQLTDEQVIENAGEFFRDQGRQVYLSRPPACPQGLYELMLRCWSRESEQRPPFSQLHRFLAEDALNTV
Experimental: page 17: In vitro Biology DDR1 cellular assay The activity of Discoidin Domain-containing Receptor protein kinase (DDR) inhibitors was determined using the PathHunter® U2OS DDR1 Functional Assay which employs Enzyme Fragment Complementation (EFC) technology, where the β-galactosidase (β-gal) enzyme is split into two fragments, ProLink (PK) and Enzyme Acceptor (EA). Independently these fragments […] β-gal enzyme. In the PathHunter® U2OS DDR1 Functional Assay, the U2OS human osteosarcoma cell line is modified to co-express a ProLinkTM (PK) tagged full-length DDR1b and an Enzyme Acceptor (EA) tagged SH2 domain. Collagen II, as a ligand, induces activation of DDR1b which results in cross-phosphorylation. The SH2-EA fusion protein then specifically binds the phosphorylated receptor resulting in complementation of the two fragments of β-gal and formation of a functional enzyme. β-gal activity is then quantitatively detected using a chemiluminescent substrate. PathHunter® Human U2OS DDR1 cells were prepared in AssayCompleteTM Cell Plating 16 Reagent (DiscoverX 93-0563R16A) and plated at 5000 cells/well in a 384-well white, clear-bottom, sterile plate (ThermoFisher 142762) and incubated for 90 minutes at 37 °C, 5% CO2. Test compounds were serially diluted from a top concentration of 10 mM (1000x final assay concentration) directly in a 384-well low-volume polypropylene plate (Greiner bio-one 784201) using an Echo 555 acoustic liquid handler (Labcyte). Test compounds were diluted in AssayCompleteTM Cell Plating 16 Reagent then added to cells using an Integra ViaFlow384 electronic reagent dispenser and pre-incubated at 37 °C, 5% CO2 for 30 minutes. Following compound pre-incubation, the cells were stimulated with 20 μg/ml Bovine Type II Collagen (DiscoverX 92-1090) with incubation for 20 hours at 37 °C, 5% CO2. Next, PathHunter Detection Reagent (DiscoverX 93-[…]) was added to the cells, incubated for 60 minutes at 25 °C in the dark, prior to capturing the chemiluminescent signal on a PHERAstar (BMG LABTECH). The percentage of inhibition was calculated for each concentration of compound using a 0.1% DMSO vehicle/Collagen II control response as a 0% inhibition and a 10 nM Dasatinib/Collagen II positive 17 page 18: control response as a 100% inhibition. The final assay concentration of the top of the test compound CRC was 10 μM. 18

[1] = Caco-2 membrane permeability assay; assay type: in vitro ADME; details: human
Experimental: Lucifer Yellow (LY) was added to the apical buffer in all wells to assess viability of the cell layer. As LY cannot freely permeate lipophilic barriers, a high degree of LY transport indicates poor integrity of the cell layer and wells with a LY Papp > 10 x 10-6 cm/s were rejected. Compound recovery from the wells was determined from MS responses (normalised to internal standard) in donor and acceptor chambers at the end of incubation compared to response in the donor chamber pre- […]
which may reduce the reliability of a result.
Caco-2 membrane permeability assay
Caco-2 cells (ECACC) were cultured in DMEM, 10% FBS, 1% NEAA, Hepes buffer 10 mM and in 50 U/mL penicillin and […] streptomycin. For transport studies, 200,000 cells/well were seeded on Millicell 24-well cell culture plates. After 24 hours of incubation at 37 °C and 5% CO2, the medium was changed with Enterocyte Differentiation Medium (Becton Dickinson), which allows Caco-2 cells to establish within three days a differentiated enterocyte monolayer. The permeability of the compounds across the cells’ monolayer was determined by measuring their transport in both directions: apical to basolateral (A → B) and basolateral to apical (B → A). For A → B directional transport, the donor working solution with test article 10 m M) was added to the apical (A) compartment and HBSS (pH 7.4) was added to the basolateral (B). For B → A directional transport, the donor working solution (with test article 10 m M) was added to the basolateral (B) compartment and HBSS (pH 7.4) was added to the apical (A). Samples were collected at T0 and after 2h incubation (5% CO2, 95% relative humidity, 37 °C) for LC-MS/MS analyses. The Papp expressed as nm/sec was calculated as follows: Papp (nm/sec) = (Vr/C0) x (1/A) x (Cr(t)/T) x 1000 000. Where
Vr is the volume of the solution in the receiving compartment (mL); C0 is initial test compound concentration in the donor compartment (expressed as area ratio); A is the membrane surface area (cm2); Cr (t) = measured concentration of the receiver well at time T120 (expressed as area ratio) and T is time of incubation (sec). Efflux ratio was also measured to understand if the compounds undergo active efflux: Efflux ratio = Papp [B > A] / Papp [A > B]. The rank order of apparent permeability of the test compound was compared with that of known reference compounds tested in the same experiment, including Sulpiride and Metoprolol (as marker for low and high permeability, respectively and Talinolol (as known P-gp substrate). […]

[2] = Microsomes stability (clearance in human microsomes); assay type: in vitro ADME; details: pH 7.4, 0.8 mg protein/mL, 1 mM NADPH, 37 °C, read-out: CLint h mic (clearance in human microsomes)
Experimental: values in Caco-2 assay were: <10 nm/s = low level; 10-50 nm/s = medium level; >50 nm/s = high […]
Test compounds were incubated, in duplicate, at the concentration of 1 μM with liver microsomes (0.8 mg protein/mL) in Dulbecco’s buffer (pH 7.4) at 37 °C in the presence of 1 mM NADPH. At different time points (0, 5, 10, 20, 30, and 60 min), 50 μL aliquots of the incubates were taken, added with 80 μL of ice-cold acetonitrile, and 20 μL of 1 μM warfarin in acetonitrile (injection check) to stop the reaction, and samples were centrifuged. The supernatants were analyzed by LC−MS/MS for unchanged compounds. Test compounds were incubated with liver microsomes in Dulbecco’s buffer in the absence of NADPH for 0 and 60 min, as control. Midazolam at the concentration of 1 μM, was incubated with microsomes as positive control for phase I activity of microsomes. Control samples were processed as test compound samples.

EPSA polarity descriptor = assay type: physicochemical; details: almost fully nonpolar environment; polarity in nonpolar environment
Experimental: Polarity is quantified by two descriptors: EPSA and Δlog kw ^IAM. The first is measured in an almost fully nonpolar environment, and the second describes polarity in an aqueous medium. […] This is also in line with the higher solubility of KIMCs over 1.

[3] = Caco-2, pH 7.4, Caco-2 Papp AB with Pgp inhibitor
[4] = Caco-2, pH 7.4, Caco-2 Papp AB without Pgp inhibitor
[5] = Caco-2, pH 7.4, Caco-2 Papp BA with Pgp inhibitor
[6] = Caco-2, pH 7.4, Caco-2 Papp BA without Pgp inhibitor
[7] = Caco-2, pH 7.4, A to B, without Pgp inhibitor, pH 7.4, 2 h, read-out: Caco-2 Papp AB without Pgp inhibitor
[8] = Caco-2, pH 7.4, B to A, without Pgp inhibitor, pH 7.4, 2 h, read-out: Caco-2 Papp BA without Pgp inhibitor (converted)
[9] = Caco-2, pH 7.4, with Pgp inhibitor (name and concentration not stated), A to B, with Pgp inhibitor, pH 7.4, 2 h, read-out: Caco-2 Papp AB with Pgp inhibitor
[10] = Caco-2, pH 7.4, with Pgp inhibitor (name and concentration not stated), B to A, with Pgp inhibitor, pH 7.4, 2 h, read-out: Caco-2 Papp BA with Pgp inhibitor (converted)

Cn1cc2c3nc(ncc31)Nc1cnn(c1)CCCNCCOc1ccc-2cc1 [Compound 5a]
IC50 (DDR1): 125 nM | Papp A→B at 2 h, 10 µM [1, 3]: 19.9 ± 2.7 ×10⁻⁶ cm/s | Papp A→B at 2 h, 10 µM [1, 4]: 10.2 ± 1.5 ×10⁻⁶ cm/s | Papp B→A at 2 h, 10 µM [1, 5]: 13.5 ×10⁻⁶ cm/s | Papp B→A at 2 h, 10 µM [1, 6]: 24.2 ×10⁻⁶ cm/s | microsomal CLint at 1 h, 1 µM ([2]; microsomes): 80.5 ± 2.7 µL/min/mg | EPSA (EPSA polarity descriptor): 125 A^2

Cn1cc2c3nc(ncc31)Nc1cnn(c1)CCCNC(=O)COc1ccc-2cc1 [Compound 5b]
IC50 (DDR1): 2000 nM | Papp A→B at 2 h, 10 µM [1, 7]: 3 ± 0.6 ×10⁻⁶ cm/s | Papp B→A at 2 h, 10 µM [1, 8]: 21.5 ×10⁻⁶ cm/s | Papp A→B at 2 h, 10 µM [1, 9]: 22.8 ± 2.8 ×10⁻⁶ cm/s | Papp B→A at 2 h, 10 µM [1, 10]: 15.9 ×10⁻⁶ cm/s | microsomal CLint at 1 h, 1 µM ([2]; liver microsomes): 88.5 ± 9.6 µL/min/mg | EPSA (EPSA polarity descriptor): 106 A^2

c1cc2nc(n1)Nc1cnn(c1)CCCNCCOc1ccc(cc1)N2 [Compound 6a]
IC50 (DDR1): 1250 nM | Papp A→B at 2 h, 10 µM [1, 3]: 8.7 ± 1.9 ×10⁻⁶ cm/s | Papp A→B at 2 h, 10 µM [1, 4]: 1.9 ± 0.5 ×10⁻⁶ cm/s | Papp B→A at 2 h, 10 µM [1, 5]: 7 ×10⁻⁶ cm/s | Papp B→A at 2 h, 10 µM [1, 6]: 22 ×10⁻⁶ cm/s | microsomal CLint at 1 h, 1 µM ([2]; microsomes): 22.1 ± 1.4 µL/min/mg | EPSA (EPSA polarity descriptor): 127 A^2

O=C1COc2ccc(cc2)Nc2ccnc(n2)Nc2cnn(c2)CCCN1 [Compound 6b]
IC50 (DDR1): > 3150 nM | Papp A→B at 2 h, 10 µM [1, 7]: 0.6 ± 0.1 ×10⁻⁶ cm/s | Papp B→A at 2 h, 10 µM [1, 8]: 22.3 ×10⁻⁶ cm/s | Papp A→B at 2 h, 10 µM [1, 9]: 5.5 ± 0.2 ×10⁻⁶ cm/s | Papp B→A at 2 h, 10 µM [1, 10]: 20.3 ×10⁻⁶ cm/s | microsomal CLint at 1 h, 1 µM ([2]; liver microsomes): 12.1 ± 0.1 µL/min/mg | EPSA (EPSA polarity descriptor): 108 A^2
